Assays:
[1] = test system: PERIOSTIN; assay: Real-time PCR, periostin gene expression in human periodontal ligament cells; type: cell-based; details: hPDL cells, average of three experiments
Description: Periostin is a protein first discovered in a periodontal ligament and periosteum of a bone, and periostin is expressed in the periodontal ligament and mesenchymal of the developing tooth and is known to be involved in cell adhesion. According to several recent studies, periostin is an important regulator of periodontium formation, promotes collagen fiber production and migration of fibroblast and osteoblast, and it is known to play a pivotal role in the regeneration of periodontal ligament and alveolar bone after periodontal surgery to treat periodontal disease. Therefore, the effect of a peptide of Example 1 on the expression of periostin which is a marker gene for a periodontal ligament differentiation, and the type 3 collagen fiber gene (COL3) was confirmed.

[2] = test system: BSP; assay: Real-time PCR, BSP gene expression in human periodontal ligament cells; type: cell-based; details: hPDL cells, average of three experiments
Description: Human periodontal ligament cells (hPDL cells) were isolated from periodontal ligament tissues from the wisdom teeth of 10 adults (18-22 years old) at Seoul National University Dental Hospital. Specifically, all experiments were performed with the consent of the patient after obtaining approval from the Hospital's Institutional Review Board, a periodontal ligament tissue attached to the root of a wisdom tooth was isolated and cut into double-sided pieces, placed in a 60 mm dish, and covered with a cover slip, and then cultured in Dulbecco's degenerated Eagle's Medium.

[3] = test system: CAP; details: hPDL cells; real-time PCR; average of three experiments
Description: Human periodontal ligament cells (hPDL cells) were isolated from periodontal ligament tissues from the wisdom teeth of 10 adults (18-22 years old) at Seoul National University Dental Hospital. Specifically, all experiments were performed with the consent of the patient after obtaining approval from the Hospital's Institutional Review Board, a periodontal ligament tissue attached to the root of a wisdom tooth was isolated and cut into double-sided pieces, placed in a 60 mm dish, and covered with a cover slip, and then cultured in Dulbecco's […] Eagle's Medium.
Total RNA from human periodontal ligament cells was isolated using a TRIzol reagent. cDNA was synthesized using 2 μg of total RNA, 1 μl of reverse transcriptase, and 0.5 μg of oligo (dT). cDNA of synthesized human periodontal ligament cells was used for a real-time polymerase chain reaction using primers shown in Table 2 below. A real-time polymerase chain reaction was performed in ABI PRISM 7500 sequence detection system (Applied Biosystems) using SYBR GREEN PCR Master Mix (Takara, Japan). The real-time polymerase chain reaction was performed at 94° C., 1 min; 95° C., 15 sec-60° C., 34 sec was performed under the condition of repeating 40 cycles. Results were analyzed using a comparative cycle threshold (CT) method.
Bone sialoprotein (BSP) and dentin matrix protein 1 (DMP1) genes are used as markers for the differentiation of osteoblast and cementoblast and are known as important genes for the calcification of a bone and cementum. In addition, a CAP (cementum attachment protein) gene is expressed in differentiated cementoblast and is known as a gene involved in the cementum attachment of a periodontal ligament fiber bundle.

[4] = test system: three-wall periodontal defect; assay: Periodontium regeneration in periodontium damage animal model, histological evaluation; type: in vivo, beagle dogs; details: beagle dog, 3 months
Description: Four beagle dogs (12-16 kg; […]) were anesthetized by inhalation of Geloran, intravenously injected with Zoletil (5 mg/kg) and Xylazine (0.2-0.5 mg/kg), and then treated with Lidocaine (Lidocaine 2% with 1:80,000 epinephrine). The 4th premolar tooth and the 2nd molar tooth were extracted from the mandible of the beagle dog, and then the dog waited for healing for 3 months. After 3 months of healing, three-wall periodontal defect was induced on distal and mesial surfaces of a 1st molar tooth. Then, a periodontal damage of 4×4×4 mm was formed with the buccal and distal bones remaining around the tooth root, the root alveolar bone is securely removed, tooth root planing was performed using a curette, and then an incisor groove was formed using a ½ round bur. Next, an experimental group was transplanted with a collagen sponge (a peptide solution obtained by dissolving a peptide in physiological saline at a concentration of 1 μg/μl was prepared, 50 μl of a peptide solution was added to the EP tube, and then was soaked for 5 minutes to prepare the collagen sponge) including a 50 μl of peptide (SEQ ID NO: 16 of group 2) prepared in Example 1 at a defect region, After the defect, only a negative control (NC) without any treatment and a collagen sponge (prepared by soaking a collagen sponge in 50 μl of physiological saline for 5 minutes) was placed on the inner bone wall of a bone defect and a transplanted negative control (NC+Plug) was sacrificed 3 months later, and histological evaluation was performed. After 3 months, a beagle dog was sacrificed by administering an excessive amount (90-120 mg/kg) of pentobarbital. A tooth of the beagle dog was extracted, fixed with 10% formalin, and then calcium was removed by adding 5% formic acid, molded, and embedded in paraffin, to obtain a tissue section with a thickness of 5 μm. The obtained tissue section was stained with hematoxylin and eosin or collagen stained (Masson's Trichrome Staining) to confirm periodontal ligament regeneration and then analyzed using by an optical microscope equipped with a digital camera (LEICA ICC50 camera, Germany). After extraction of a 4th premolar tooth and a 2nd molar tooth from the mandibles of 4 beagle dogs, they waited for 3 months to heal, and After 3 months of healing, the 3-mural periodontal defect was induced in distal and mesial surfaces of a 1st molar tooth. Then, periodontium damage of 4×4×4 mm was formed with the buccal and distal bones remaining around the tooth root, the root alveolar bone is securely removed, tooth root planing was performed using a curette, and then an incisor groove was formed. Next, the experimental group transplanted a collagen sponge containing 50 μg of the peptide (SEQ ID NO: 16) of Example 1 to the defect region, and after the defect, a negative control (NC) without any treatment and control (NC+Plug) transplanted by placing only a collagen sponge on the inner bone wall of the bone defect was sacrificed 3 months later for histological evaluation.

[5] = collagen sponge with 50 μg peptide, Masson's trichrome stain, FIG. 6
[6] = collagen sponge with 50 μg peptide, hematoxylin/eosin, FIG. 5

Sequence	PERIOSTIN gene expression, relative mRNA expression level compared to the control (Average) [1]	BSP gene expression, relative mRNA expression level compared to the control (Average) [2]	CAP gene expression, relative mRNA expression level compared to the control (Average) [3]	also measured
KYKQKKKNYK [SEQ ID NO 5]	2.67	2.67	2.67	–
KYKQKKKSYK [SEQ ID NO 13]	2.525	2.525	2.525	–
KYKQKKRNYK [SEQ ID NO 7]	2.329	2.215	2.451	–
KYKQKKRSYK [SEQ ID NO 15]	2.620	2.620	2.620	–
KYKQKRKNYK [SEQ ID NO 6]	2.705	2.705	2.705	–
KYKQKRKSYK [SEQ ID NO 14]	2.836	2.836	2.836	–
KYKQKRRNYK [SEQ ID NO 8]	2.021	2.021	2.021	–
KYKQKRRSYK [SEQ ID NO 16, Group 2 peptide, 8th amino acid serine (S)]	2.403	2.606	2.467	Alveolar bone regeneration ([4]; collagen sponge with 50 μg peptide at defect, hematoxylin/eosin, FIG. 4): alveolar bone was regenerated in most of the damage periodontium; Incorporation of new periodontal ligament fiber bundle into alveolar bone and cementum [4, 5]: A new periodontal ligament fiber bundle was vertically incorporated in the newly formed alveolar bone and cementum; New cementum-like tissue formation [4, 5]: new cementum-like tissue was observed along a tooth root surface; New periodontal ligament-like tissue formation [4, 5]: new periodontal ligament-like tissue formation was also observed; Incorporation of new periodontal ligament into alveolar bone and cementum [4, 6]: New periodontal ligament was incorporated in the newly formed alveolar bone and cementum; New cementum-like tissue formation [4, 6]: new cementum-like tissue was observed along a tooth root surface; New periodontal ligament-like tissue formation [4, 6]: new periodontal ligament-like tissue formation was also observed
KYKQRKKNYK [SEQ ID NO 1]	2.092	2.092	2.092	–
KYKQRKKSYK [SEQ ID NO 9]	2.211	2.211	2.211	–
KYKQRKRNYK [SEQ ID NO 2]	2.361	2.361	2.361	–
KYKQRKRSYK [SEQ ID NO 10]	2.811	2.811	2.811	–
KYKQRRKNYK [SEQ ID NO 3]	2.572	2.572	2.572	–
KYKQRRKSYK [SEQ ID NO 11]	2.362	2.362	2.362	–
KYKQRRRNYK [SEQ ID NO 4]	2.702	2.702	2.702	–
KYKQRRRSYK [SEQ ID NO 12]	2.211	2.211	2.211	–
